In US12012415B2, “Compositions and methods for the diagnosis, treatment and prevention of neoplastic and neurological disorders” (AscentGene, Inc., priority 2018, dated 2024):

Experiments:
[1] = test system: Aβ1-42-induced cognitive impairments; experiment: Novel-object recognition (NOR) test in Aβ1-42 AD rat model; format: in vivo, rats
Method: Aβ1-42 (Sigma-Aldrich, St. Louis, MO, USA;) was dissolved in double-distilled water at the concentration of 5 μg/μl, and incubated at 37° C. for one week before surgery. The rats were randomly divided into four groups as Sham (n=8), Sham+AG-1601 (n=8), Aβ1-42 (n=8) and Aβ1-42+AG-1601 (n=8). The Alzheimer's disease rat models were established by intracerebroventricular (i.c.v.) injection of Aβ1-42 aggregates. The animals were anesthetized with intraperitoneal injection of pentobarbital sodium (50 mg/kg) and placed in a stereotaxic apparatus (Narishige, Japan). The head skin of the rat was opened and two small holes were drilled on both sides of skull following the coordinates: 0.8 mm posterior to bregma, +1.4 mm lateral to sagittal suture, 4.0 mm beneath the surface of brain. Aβ1-42 (2.0 μl per side) was injected bilaterally into the lateral ventricles through micro-syringe. The needle was taken out after 5 minutes of the injection to ensure the aggregates were infused completely. […] The short- and long-term memory functions of the animals were evaluated by using the NOR test, which were carried out after the open field test. […] A recognition index was calculated by the percentage of TB/(TA+TB) (TA: time spent exploring the familiar object A; TB: time spent exploring the novel object B). […]

U251 cells = experiment: Cell viability, combination with TMZ in U251 cells; format: cell-based, human
Method: Human glioma cell lines of U251, SF539, SF295 were obtained from NCI/DTP and U87 was obtained from ATCC. U251, SF539, and SF295 cells were grown in RPMI (Gibco) medium; U87 cells were grown in EMEM medium (ATCC), all the cells culture media containing 10% FBS and 100 unit/ml of Penicillin-Streptomycin, and cells were incubated in a 37 °C/5% CO2 humidified hood. One day before chemical compounds treatment, four kinds of cells U251, SF539, SF295, and U87 were seeded in 96-well plates at 10,000 cells/well (100 μl) with triplicate. The culture medium was removed and cells were treated with a series different concentration of AG1601/in correspond fresh media. Following an additional incubation of 48 hours at 37° C./5% CO2, cells proliferation assay was performed with Cell Counting Kit-8 (Dojindo Laboratories, #CK04), added 10 μl of reagent to the cells in each well after replacing with 100 μl of fresh media, mix well, following an additional 2 to 3 hours incubation at 37° C./5% CO2, read wavelengths of OD450 nm in a 96-well plate reader (Victor 2, 1420 Multilabel counter), data analysis were performed with Excel and it is platted as relative mean OD450 nm+/−standard error of the mean.
Cells were treated with indicated content of AG-1601 for 48 hours, then followed by performance of cell viability assays. […]

C=CC1=C(C)c2cc3[nH]c(cc4nc(cc5[nH]c(cc1n2)c(C)c5C=C)C(C)=C4CCC(=O)O)c(CCC(=O)NCCCc1ccccc1)c3C [AG-1601, 3-(2,8,13,18-tetramethyl-3-(3-oxo-3-((3-phenylpropyl)amino)propyl)-12,17-divinylporphyrin-7-yl)propanoic acid]
recognition index, short-term memory test ([1]; 1 h after training, vs Aβ1-42 group): significant increase in recognition index | cognitive impairments in NOR test ([1]; Aβ42 induced AD rat model): significantly reversed cognitive impairments | potentiation of the effect of TMZ (U251 cells): potentiates the effect of TMZ
